The results in this text go back to patent US20070015733A1, “Aryl Phosphate Derivatives of d4T having Activity Against Resistant HIV Strains” (Parker Hughes Institute, priority 1998, published 2007).

This experiment concerns NRTI-resistant recombinant HIV-1 isolates. The experiment is described as follows: Documented fold decreased susceptibility of recombinant HIV-1 clones. The experiment is classed as cell-based.

As to `Cc1cn([C@H]2C=C[C@@H](CO)O2)c(=O)[nH]c1=O` [d4T, 2′,3′-didehydro-2′,3′-dideoxythymidine], under “mean over 6 recombinant clones”, the “mean reduction in susceptibility” value was determined as 8.1 fold. Besides, where the note is “median over 6 recombinant clones”, the “median reduction in susceptibility” value is listed as 6.5 fold.
